# Experimental data: ChEMBL document CHEMBL4725412, “Augmenting the Activity of Macrolide Adjuvants against Acinetobacter baumannii” (2020)
# The source made the active and inactive calls. The calls are words filed in the database; no cut-off is given here.
# How the values were obtained:
# Acinetobacter baumannii [1] = assay: Potentiation of clarithromycin-induced antibacterial activity against Acinetobacter baumannii AB5075 assessed as fold reduction in clarithromycin MIC at 30 uM incubated for 16 hrs in presence of clarithromycin by broth microdilution method; format: functional
# Acinetobacter baumannii [2] = assay: Potentiation of clarithromycin-induced antibacterial activity against Acinetobacter baumannii AB5075 assessed as clarithromycin MIC at 20 uM incubated for 16 hrs by broth microdilution method (reference value: […] ug/ml); format: functional
# Acinetobacter baumannii [3] = assay: Potentiation of clarithromycin-induced antibacterial activity against Acinetobacter baumannii AB5075 assessed as clarithromycin MIC at 10 uM incubated for 16 hrs by broth microdilution method (reference value: […] ug/ml); format: functional
# Acinetobacter baumannii [4] = assay: Potentiation of clarithromycin-induced antibacterial activity against Acinetobacter baumannii AB5075 assessed as clarithromycin MIC at […] incubated for 16 hrs by broth microdilution method (reference value: […] ug/ml); format: functional; conditions: dose 30 µM
# Acinetobacter baumannii [5] = assay: Potentiation of clarithromycin-induced antibacterial activity against Acinetobacter baumannii AB5075 assessed as fold reduction in clarithromycin MIC at 10 uM incubated for 16 hrs in presence of clarithromycin by broth microdilution method; format: functional
# Acinetobacter baumannii [6] = assay: Potentiation of clarithromycin-induced antibacterial activity against Acinetobacter baumannii AB5075 assessed as fold reduction in clarithromycin MIC at 20 uM incubated for 16 hrs in presence of clarithromycin by broth microdilution method; format: functional
# Acinetobacter baumannii [7] = assay: Antibacterial activity against Acinetobacter baumannii AB5075 assessed as reduction in microbial growth incubated for 16 hrs by broth microdilution method; format: functional
# Acinetobacter baumannii [8] = assay: Potentiation of clarithromycin-induced antibacterial activity against Acinetobacter baumannii AB5075 assessed as clarithromycin MIC at 7.5 uM incubated for 16 hrs by broth microdilution method (reference value: […] ug/ml); format: functional
# Acinetobacter baumannii [9] = assay: Potentiation of clarithromycin-induced antibacterial activity against Acinetobacter baumannii AB5075 assessed as clarithromycin MIC at 15 uM incubated for 16 hrs by broth microdilution method (reference value: […] ug/ml); format: functional
# Acinetobacter baumannii [10] = assay: Potentiation of clarithromycin-induced antibacterial activity against Acinetobacter baumannii AB5075 assessed as fold reduction in clarithromycin MIC at 7.5 uM incubated for 16 hrs in presence of clarithromycin broth microdilution method; format: functional
# Acinetobacter baumannii [11] = assay: Potentiation of clarithromycin-induced antibacterial activity against Acinetobacter baumannii AB5075 assessed as clarithromycin MIC at 25 uM incubated for 16 hrs by broth microdilution method (reference value: […] ug/ml); format: functional
# Acinetobacter baumannii [12] = assay: Potentiation of clarithromycin-induced antibacterial activity against Acinetobacter baumannii AB5075 assessed as clarithromycin MIC at 5 uM incubated for 16 hrs by broth microdilution method (reference value: […] ug/ml); format: functional
# Acinetobacter baumannii [13] = assay: Potentiation of clarithromycin-induced antibacterial activity against Acinetobacter baumannii AB5075 assessed as fold reduction in clarithromycin MIC at 5 uM incubated for 16 hrs in presence of clarithromycin by broth microdilution method; format: functional
# Acinetobacter baumannii [14] = assay: Potentiation of clarithromycin-induced antibacterial activity against Acinetobacter baumannii AB5075 assessed as assessed as fold reduction in clarithromycin MIC at 30 uM by CLSI based microdilution method; format: functional
# Acinetobacter baumannii [15] = assay: Potentiation of clarithromycin-induced antibacterial activity against Acinetobacter baumannii AB5075 assessed as assessed as fold reduction in clarithromycin MIC at 10 uM by CLSI based microdilution method; format: functional
# Acinetobacter baumannii [16] = assay: Antibacterial activity against Acinetobacter baumannii AB5075 assessed as reduction in microbial growth by CLSI based microdilution method; format: functional
# Acinetobacter baumannii [17] = assay: Potentiation of clarithromycin-induced antibacterial activity against Acinetobacter baumannii AB5075 assessed as clarithromycin MIC at 30 uM by CLSI based microdilution method (reference value: […] ug/ml); format: functional
# Acinetobacter baumannii [18] = assay: Potentiation of clarithromycin-induced antibacterial activity against Acinetobacter baumannii AB5075 assessed as clarithromycin MIC at 10 uM by CLSI based microdilution method (reference value: […] ug/ml); format: functional
# Acinetobacter baumannii [19] = assay: Potentiation of Colistin-induced Acinetobacter baumannii AB5075 assessed as Colistin MIC at 30 uM by broth microdilution method; format: functional, organism-based
SMILES,MIC (Acinetobacter baumannii [2]),MIC (Acinetobacter baumannii [3]),MIC (Acinetobacter baumannii [4]) [µg/mL],MIC (Acinetobacter baumannii [7]) [µM],fold change (FC) (Acinetobacter baumannii [1]),fold change (FC) (Acinetobacter baumannii [5]),other results
COc1cc(-c2c[nH]c(N)n2)ccc1NC(=O)c1cc(Cl)cc(Cl)c1.Cl,4 µg/mL,16 µg/mL,0.5,100,64,2,fold change (FC) (Acinetobacter baumannii [6]): 8
Cl.Nc1nc(-c2ccc(NC(=O)c3ccc(Cl)c(C(F)(F)F)c3)cc2F)c[nH]1,–,2 µg/mL,–,50,–,16,MIC (Acinetobacter baumannii [8]): 8 µg/mL; MIC (Acinetobacter baumannii [9]): 0.25 µg/mL; fold change (FC) (Acinetobacter baumannii [10]): 4
Nc1nc(-c2ccc(NC(=O)c3c(Cl)cc(Cl)cc3Cl)cc2)c[nH]1,16 µM,32 µM,–,100,–,–,MIC (Acinetobacter baumannii [11]): 8 µM
Cl.Nc1nc(-c2ccc(NC(=O)Nc3ccc(Cl)c(Cl)c3)cc2)c[nH]1,0.0625 µg/mL,0.25 µg/mL,0.0625,100,>=512,–,MIC (Acinetobacter baumannii [12]): 8 µg/mL; MIC (Acinetobacter baumannii [8]): 2 µg/mL; MIC (Acinetobacter baumannii [9]): 0.125 µg/mL; fold change (FC) (Acinetobacter baumannii [10]): 16; fold change (FC) (Acinetobacter baumannii [6]): >=512; fold change (FC) (Acinetobacter baumannii [13]): 4
Nc1ncc(-c2ccc(NC(=O)c3cc(Br)cc(Br)c3)cc2)[nH]1,–,–,–,–,–,–,fold change (FC) (Acinetobacter baumannii [14]): 128; fold change (FC) (Acinetobacter baumannii [15]): 16; MIC (Acinetobacter baumannii [16]): 100 µM; MIC (Acinetobacter baumannii [17]): 0.25 µg/mL; MIC (Acinetobacter baumannii [18]): 2 µg/mL
Cl.Nc1nc(-c2c(F)cc(NC(=O)c3cc(Cl)cc(Cl)c3)cc2F)c[nH]1,8 µg/mL,–,4,–,–,2,–
Cc1cc(-c2c[nH]c(N)n2)ccc1NC(=O)c1cc(Cl)cc(Cl)c1.Cl,1 µg/mL,16 µg/mL,–,> 200,64,2,fold change (FC) (Acinetobacter baumannii [6]): 32
Cc1cc(NC(=O)c2cc(Cl)cc(Cl)c2)ccc1-c1c[nH]c(N)n1.Cl,0.5 µg/mL,8 µg/mL,0.5,> 200,64,4,fold change (FC) (Acinetobacter baumannii [6]): 64
Cl.Nc1nc(-c2ccc(NC(=O)c3cc(Cl)cc(Cl)c3)cc2F)c[nH]1,0.25 µg/mL,0.5 µg/mL,0.5,> 200,128,64,MIC (Acinetobacter baumannii [12]): 8 µg/mL; MIC (Acinetobacter baumannii [8]): 4 µg/mL; fold change (FC) (Acinetobacter baumannii [10]): 8; fold change (FC) (Acinetobacter baumannii [13]): 4
Cl.Nc1nc(-c2ccc(NC(=O)c3ccc(C(F)(F)F)c(Cl)c3)cc2F)c[nH]1,–,8 µg/mL,–,50,–,4,MIC (Acinetobacter baumannii [8]): 16 µg/mL; MIC (Acinetobacter baumannii [9]): 0.25 µg/mL; fold change (FC) (Acinetobacter baumannii [10]): 2

# The next lines start with results.
MIC (Acinetobacter baumannii [2]),MIC (Acinetobacter baumannii [3]),MIC (Acinetobacter baumannii [4]) [µg/mL],MIC (Acinetobacter baumannii [7]) [µM],SMILES,fold change (FC) (Acinetobacter baumannii [1]),fold change (FC) (Acinetobacter baumannii [5]),other results
–,–,–,≥ 200,Nc1nc(-c2ccc(NC(=O)c3ccc(C(F)(F)F)cc3)cc2)c[nH]1,–,–,–
–,–,–,≥ 200,Nc1nc(-c2ccc(NC(=O)c3cccc(F)c3)cc2)c[nH]1,–,–,–
–,–,–,≥ 200,Nc1nc(-c2ccc(NC(=O)c3ccccc3)cc2)c[nH]1,–,–,–
–,–,–,50,Cl.Nc1nc(-c2ccc(NC(=O)c3cc(C(F)(F)F)cc(C(F)(F)F)c3)cc2)c[nH]1,–,–,MIC (Acinetobacter baumannii [9]): 8 µg/mL
4 µM,16 µM,–,≥ 200,Nc1nc(-c2ccc(NC(=O)c3cccc(Cl)c3)cc2)c[nH]1,–,–,–
–,–,–,≥ 200,Cl.Nc1ncc(-c2ccc(NC(=O)c3ccc(Cl)cc3Cl)cc2)[nH]1,8,–,–
–,–,–,≥ 200,Nc1nc(-c2ccc(NC(=O)c3ccc(Br)cc3)cc2)c[nH]1,–,–,Activity (Acinetobacter baumannii [19]): inactive
–,–,4,≥ 200,Cl.Nc1ncc(-c2ccc(NC(=O)c3cc(F)cc(F)c3)cc2)[nH]1,8,–,–
–,1 µM,–,50,Cc1ccc(C(=O)Nc2ccc(-c3c[nH]c(N)n3)cc2)cc1F,–,–,MIC (Acinetobacter baumannii [12]): 16 µM
4 µM,16 µM,–,≥ 200,Nc1nc(-c2ccc(NC(=O)c3ccc(Cl)cc3)cc2)c[nH]1,–,–,–
